Here are results for eight molecules from US7034027B2, “Fused heterocyclic derivatives as phosphodiesterase inhibitors” (Lilly Icos LLC, priority 2000, dated 2006).

As usually defined, the melting point is the temperature, or range, at which the solid turns liquid. The IC50 is the concentration that gives 50% inhibition.

The target in data set [1] is T1, human recombinant PDE5 (Homo sapiens, UniProt O76074).
T1 construct: host or cells: Saccharomyces cerevisiae BJ2-54 (exemplary method)
In words: Inhibitory effect on cGMP-PDE (PDE5 IC50, one-step assay). The class given is biochemical. The settings on record: in vitro. On the procedure:
The compounds of structural formula (I) were tested for an ability to inhibit PDE5. The ability of a compound to inhibit PDE5 activity is related to the IC50 value for the compound, i.e., the concentration of inhibitor required for 50% inhibition of enzyme activity. The IC50 value for compounds of structural formula (I) were determined using recombinant human PDE5.
cGMP-PDE activity of compounds of the present invention was measured using a one-step assay adapted from Wells et al., Biochim. Biophys. Acta, 384, 430 (1975). The reaction medium contained 50 mM Tris-HCl, pH 7.5, 5 mM magnesium acetate, 250 μg/ml 5′-Nucleotidase, 1 mM EGTA, and 0.15 μM 8-[H^3]-cGMP. Unless otherwise indicated, the enzyme used was a human recombinant PDE5 (ICOS Corp., Bothell, Wash.).
Compounds of the invention were dissolved in DMSO finally present at 2% in the assay.

SMILES strings stand for the structures.

For the molecule `CN1CCC(=O)N2[C@H](c3ccc4c(c3)OCO4)c3[nH]c4ccccc4c3C[C@H]2C1=O` [Example 4, (5aS,11R)-11-Benzo[1,3]dioxol-5-yl-7-methyl-5,5a,8,9,11,12-hexahydro-7H-7,10a,12-triaza-cyclohepta[b]fluorene-6,10-dione], the melting point lay in the range of 179 to 182 °C. In data set [1], the half-maximal inhibitory concentration (IC50) worked out at 0.593 µM.
Taken in the same sequence, the figures for `NC(=O)CC[C@@H]1NC(=O)[C@H]2Cc3c([nH]c4ccccc34)[C@@H](c3ccc4c(c3)OCO4)N2C1=O` [Example 2, 3-((3S,6R,12aR)-6-Benzo[1,3]dioxol-5-yl-1,4-dioxo-1,2,3,4,6,7,12,12a-octahydropyrazino[1′,2′:1,6]-pyrido[3,4-b]indo-3-yl)propionamide] were 78 to 82 °C and 0.0022 µM.
As for `CN1C(=O)[C@H]2Cc3c([nH]c4ccccc34)C(c3ccc4c(c3)OCO4)N2C(=O)C1(C)C` (mixture of isomers) [Example 1, (12a,R)-6-Benzo[1,3]dioxol-5-yl,2,3,3-trimethyl-2,3,6,7,12,12a-hexahydropyrazino[1′,2′:1,6]-pyrido[3,4-b]indole-1,4-dione], the melting point lay within 225 to 235 °C. Moreover, the concentration for half-maximal inhibition (IC50) in data set [1] was found to be 0.161 µM.
As for `O=C(O)CC[C@@H]1NC(=O)[C@H]2Cc3c([nH]c4ccccc34)[C@@H](c3ccc4c(c3)OCO4)N2C1=O` [Example 6, 3-((3S,6R,12aR)-6-Benzo[1,3]dioxol-5-yl-1,4-dioxo-1,2,3,4,6,7,12,12a-octahydropyrazino[1′,2′:1,6]pyrido[3,4-b]indole-3-yl)propionic acid], the concentration for half-maximal inhibition (IC50) in data set [1] worked out at 0.001 µM.
Consider `CC(C)(C)OC(=O)CC[C@@H]1NC(=O)[C@H]2Cc3c([nH]c4ccccc34)[C@@H](c3ccc4c(c3)OCO4)N2C1=O` [Example 5], for which the melting point was 222 to 227 °C. The 50% inhibitory concentration (IC50) in data set [1] is 0.0006 µM.
`CC(C)OC(=O)CC[C@@H]1NC(=O)[C@H]2Cc3c([nH]c4ccccc34)[C@@H](c3ccc4c(c3)OCO4)N2C1=O` [Example 7, 3-((3S,6R,12aR)-6-Benzo[1,3]dioxol-5-yl-1,4-dioxo-1,2,3,4,6,7,12,12a-octahydropyrazino[1′,2′:1,6]pyrido[3,4-b]indol-3-yl)-propionic acid isopropyl ester]: in data set [1], the IC50 turned out to be 0.0002 µM.
In turn, `O=C1N[C@H](CO)C(=O)N2[C@H](c3ccc4c(c3)OCO4)c3[nH]c4ccccc4c3C[C@H]12` [Example 8, (3R,6R,12aR)-6-Benzo[1,3]dioxo-5-yl-3-hydroxymethyl-2,3,6,7,12,12a-hexahydropyrazino[1′,2′:1,;6]pyrido[3,4-b]indole-1,4-dione] showed a melting point of 194 to 200 °C. Also, the IC50 in data set [1] worked out at 0.028 µM.
`O=C1NNC(=O)N2[C@H](c3ccc4c(c3)OCO4)c3[nH]c4ccccc4c3C[C@H]12` [Example 3, (5aR,10R)-10-Benzo[1,3]dioxol-5-yl-5,5a,7,8,10,11-hexahydro-7,8,9a,11-tetraazabenzo[b]fluorene-6,9-dione] displayed a melting point of 188 to 194 °C. Moreover, in data set [1], the half-inhibitory concentration (IC50) was 0.113 µM.
